The record followed here is patent US6274738A, “Carboxamide derivatives having aryl and thiazole rings” (Geron Corporation, priority 1997, dated 2001).

pIC50: −log10 of the molar value.

For the test, the target named is T1, DNA primase (Homo sapiens, UniProt P49642+P49643).
T1 construct: using a nuclear extract comprising primase activity, as described above; endogenous in cells; host or cells: nuclear extract
As to the kind of experiment: Primase activity assay (incorporation of radioactive dATP on poly(dT) template). The conditions noted are these: approximate concentration at which 50% of the primase enzyme activity was inhibited; determined using the methods described herein; read-out: IC50 (primase-inhibiting properties). Format: biochemical. As to the method: In the assay, primase was diluted with primase dilution buffer (50% glycerol, 50 mM Tris HCl (pH 8.0) 20 mM KCl, 1 mM EDTA, 1 mM βME) to achieve a selected reaction volume (typically, reactions were carried out in an overall volume of 60 μl). A typical 60 μl reaction volume further included 50 mM Tris HCl (pH 8.0); 20 mM KCl, 200 μg/ml BSA, 4 mM MgCl2, 2 mM fresh DTT, 2 mM rATP, 5 μCi ^32 P (800 Ci/mmol) or 2.5 μCi ^33 P (2,000 Ci/mMol) dATP, 10 μg/ml Poly (dT), and primase and polymerase α.
The recombinant 180 Kd human polymerase ax protein was isolated from a bacculovirally transduced SF9 cell as described in Wang et al. (1995) Methods in Enzymology 262: 77-84. Typically, about 0.05 μg of p180 and about 0.025 μg of a 1:1 mixture of p49/p58 primase subunits were used per reaction.
Several reactions were typically set up in parallel, although a single reaction can also be assessed. For example, a Zymate XP (Zymark Corporation; Hopkinton, Mass.) automated robot using Microlab 2200 (Hamilton; Reno, Nev.) pipeting station to transfer parallel samples to 96 well microtiter plate was used to set up several parallel simultaneous reactions.
Parallel reactions were incubated for 30 minutes at 30° C. 15 μl of each reaction was spotted into one well on a Unifilter plate (Whatman GF/C glass fiber filter bottom), typically using the automated system described. The filters were then air dried. The Unifilter plate was placed onto the vacuum chamber of a dot blot apparatus, and 200 μl of ice cold 5% TCA/20 mM sodium pyrophosphate wash was added to each well, and vacuum applied. Each filter was washed three times. 100 μl of an ice cold 70% ethanol wash was added then added to each well, and vacuum applied. The ethanol wash was repeated, and the filters allowed to air dry. Excess fluid was removed from the bottom of the plate. The bottom of the plate was sealed with a transparent sealer, and 50 μl of Microscint-20 scintillation fluid was added to each well, e.g., using a Biomek1000® (Beckman Instruments; Dallas, Tex.). The top of the plate was sealed with TOPSEAL-S® Microplate Heat Sealing Film and CPM were counted for each well using a topcount microplate scintillation counter (Packard; Downers Grove, Ill.) or Trilux Microbeta 1450 (Wallac; Gaithersburg, Md.).
An assay similar to Example 2 was also developed to measure primase activity. Although the assay is described below with reference to using a nuclear extract as the source for primase activity, one of skill will recognize that the assay can easily be adapted for purified or recombinant primase. Examples 1 and 2 provide a description of the buffers, nuclear extracts, etc.
The reagents were combined into one or more separate reaction mixtures, with the poly dT, nuclear extract, and ^32 dATP being added just before use. The reaction mixtures were incubated for 1 hour at 37° C. The reactions were spotted onto filters on a unifilter plate and treated as described in Example 2.
The primase modulator compounds show in FIG. 1 were determined to modulate primase activity in the assays shown above, using a nuclear extract comprising primase activity, as described above.
For primary screening, compounds were added at the beginning of the reaction with all reagents as described above. Compounds were tested at a concentration of 100 μM. Compounds were tested in duplicate reactions.
This concentration information was used to determine the approximate IC50 for the primase modulating agents described in FIG. 1. The extract/enzyme preparation for primase modulating agents was preincubated with the compound for 30 min at 37° C. prior to addition of the remaining reagents.
The example modulators are primase inhibitors. The IC50 s for the compounds indicated in FIG. 1 was the approximate concentration of the modulator at which 50% of the primase enzyme activity in a reaction mixture was inhibited by the modulator.

T1 sequence (P49642 whole entry): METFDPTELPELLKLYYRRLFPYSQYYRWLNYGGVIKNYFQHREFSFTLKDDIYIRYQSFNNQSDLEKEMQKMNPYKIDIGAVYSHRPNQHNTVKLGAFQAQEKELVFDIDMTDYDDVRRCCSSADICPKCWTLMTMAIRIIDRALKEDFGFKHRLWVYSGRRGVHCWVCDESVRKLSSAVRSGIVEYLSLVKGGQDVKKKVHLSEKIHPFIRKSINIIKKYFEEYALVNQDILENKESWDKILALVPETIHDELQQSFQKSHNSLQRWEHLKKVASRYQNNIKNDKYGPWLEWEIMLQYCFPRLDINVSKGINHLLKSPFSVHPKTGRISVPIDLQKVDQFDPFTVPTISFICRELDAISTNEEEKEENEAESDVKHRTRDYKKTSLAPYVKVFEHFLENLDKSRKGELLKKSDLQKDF
T1 sequence (P49643 whole entry): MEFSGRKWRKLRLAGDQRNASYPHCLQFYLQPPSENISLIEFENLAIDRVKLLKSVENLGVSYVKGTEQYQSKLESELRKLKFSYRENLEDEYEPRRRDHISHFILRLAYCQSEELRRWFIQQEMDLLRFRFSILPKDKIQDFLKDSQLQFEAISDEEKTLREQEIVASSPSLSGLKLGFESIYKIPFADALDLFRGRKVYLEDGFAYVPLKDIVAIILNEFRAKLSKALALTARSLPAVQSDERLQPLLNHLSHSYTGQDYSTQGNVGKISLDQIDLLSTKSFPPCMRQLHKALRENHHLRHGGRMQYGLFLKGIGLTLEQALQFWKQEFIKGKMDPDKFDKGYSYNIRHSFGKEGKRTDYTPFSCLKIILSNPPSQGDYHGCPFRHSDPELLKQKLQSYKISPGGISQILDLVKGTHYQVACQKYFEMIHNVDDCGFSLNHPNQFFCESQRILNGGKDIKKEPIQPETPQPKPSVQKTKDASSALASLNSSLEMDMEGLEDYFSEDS
T1 sequence (P09884 whole entry partner): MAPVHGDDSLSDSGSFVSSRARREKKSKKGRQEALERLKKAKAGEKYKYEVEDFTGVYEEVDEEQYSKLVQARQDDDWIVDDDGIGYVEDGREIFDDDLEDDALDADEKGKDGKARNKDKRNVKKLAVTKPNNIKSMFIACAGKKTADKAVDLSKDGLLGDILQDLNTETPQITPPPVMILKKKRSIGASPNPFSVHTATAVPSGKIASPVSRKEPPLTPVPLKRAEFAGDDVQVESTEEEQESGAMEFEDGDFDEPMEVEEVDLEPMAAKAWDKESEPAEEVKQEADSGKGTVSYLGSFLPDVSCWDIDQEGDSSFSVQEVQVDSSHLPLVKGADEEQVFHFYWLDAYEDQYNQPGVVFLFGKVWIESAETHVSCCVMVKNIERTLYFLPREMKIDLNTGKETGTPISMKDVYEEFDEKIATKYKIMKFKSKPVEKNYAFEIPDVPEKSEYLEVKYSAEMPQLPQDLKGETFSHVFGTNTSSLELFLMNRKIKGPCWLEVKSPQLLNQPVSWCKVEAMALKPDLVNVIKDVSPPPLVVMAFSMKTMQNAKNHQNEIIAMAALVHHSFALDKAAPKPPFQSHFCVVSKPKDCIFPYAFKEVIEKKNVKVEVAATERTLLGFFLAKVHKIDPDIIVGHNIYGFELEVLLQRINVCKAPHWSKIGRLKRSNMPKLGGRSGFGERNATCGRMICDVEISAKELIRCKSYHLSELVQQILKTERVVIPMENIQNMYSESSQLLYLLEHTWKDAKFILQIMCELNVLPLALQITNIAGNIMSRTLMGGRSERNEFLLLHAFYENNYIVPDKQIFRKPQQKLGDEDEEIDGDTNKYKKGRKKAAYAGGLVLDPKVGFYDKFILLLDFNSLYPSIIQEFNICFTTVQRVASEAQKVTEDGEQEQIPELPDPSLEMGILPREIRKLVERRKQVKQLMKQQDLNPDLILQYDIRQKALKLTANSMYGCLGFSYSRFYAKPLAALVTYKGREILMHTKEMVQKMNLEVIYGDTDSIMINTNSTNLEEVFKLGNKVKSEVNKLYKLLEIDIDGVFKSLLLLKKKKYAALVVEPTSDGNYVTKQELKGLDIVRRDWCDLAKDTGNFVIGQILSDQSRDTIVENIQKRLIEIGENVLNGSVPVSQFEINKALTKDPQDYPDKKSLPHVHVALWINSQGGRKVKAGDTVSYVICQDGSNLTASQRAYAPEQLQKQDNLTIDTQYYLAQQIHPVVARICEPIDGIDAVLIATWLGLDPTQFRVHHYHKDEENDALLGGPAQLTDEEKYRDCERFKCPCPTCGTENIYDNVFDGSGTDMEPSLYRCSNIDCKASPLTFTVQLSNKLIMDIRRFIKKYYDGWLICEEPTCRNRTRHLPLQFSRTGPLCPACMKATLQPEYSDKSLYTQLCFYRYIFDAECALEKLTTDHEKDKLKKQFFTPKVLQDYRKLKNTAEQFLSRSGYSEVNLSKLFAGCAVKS
T1 sequence (Q14181 whole entry partner): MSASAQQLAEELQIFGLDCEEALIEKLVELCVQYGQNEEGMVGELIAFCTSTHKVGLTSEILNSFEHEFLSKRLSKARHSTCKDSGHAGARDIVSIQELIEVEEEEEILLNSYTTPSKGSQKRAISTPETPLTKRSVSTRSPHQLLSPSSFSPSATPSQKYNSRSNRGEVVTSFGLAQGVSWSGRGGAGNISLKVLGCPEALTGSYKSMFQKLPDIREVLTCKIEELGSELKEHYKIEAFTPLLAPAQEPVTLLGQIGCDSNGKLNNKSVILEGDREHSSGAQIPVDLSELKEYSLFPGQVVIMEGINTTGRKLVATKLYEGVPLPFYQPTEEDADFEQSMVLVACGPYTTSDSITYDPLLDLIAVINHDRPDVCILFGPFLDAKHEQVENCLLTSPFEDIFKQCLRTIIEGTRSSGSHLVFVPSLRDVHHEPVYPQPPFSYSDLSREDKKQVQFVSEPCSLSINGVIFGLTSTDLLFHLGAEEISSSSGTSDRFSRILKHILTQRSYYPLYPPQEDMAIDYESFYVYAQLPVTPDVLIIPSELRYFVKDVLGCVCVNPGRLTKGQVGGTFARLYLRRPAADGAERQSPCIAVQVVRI

Turning to `O=C(Nc1ccccc1Cl)c1csc(-c2cccnc2)n1` [Compound 2], the pIC50 is around 4.52.

In the case of `O=C(Nc1cccc(C(F)(F)F)c1)c1csc(-c2ccncc2)n1` [Compound 4], the negative logarithm of the IC50 (pIC50) was around 4.43.

As to `O=C(Nc1ccc(C(F)(F)F)cc1)c1csc(-c2ccncc2)n1` [Compound 5], the pIC50 is around 4.36.

With `O=C(Nc1ccc(Cl)cc1)c1csc(-c2ccncc2)n1` [Compound 6], the pIC50 is around 4.43.

For the compound `O=C(Nc1ccc(Br)cc1)c1csc(-c2ccncc2)n1` [Compound 7], the negative logarithm of the IC50 (pIC50) is around 4.20.

As for `O=C(Nc1ccc(F)cc1F)c1csc(-c2ccncc2)n1` [Compound 8], the negative-log IC50 (pIC50) is around 4.72.

The term pIC50 denotes the IC50 on a negative log10 scale, so that one unit is a factor of ten.
